Columns and labels:
[1] = tested on: SARS-CoV-2 (WK-521); assay: microbe, parasite or virus in culture; format: cell-based; settings: Severe acute respiratory syndrome coronavirus 2, HEK-293T, 72 h; for IC50: read-out: IC50 (concentration of agent which reduces viral production and replication by 50%); for IC90: read-out: IC90 (concentration of agent which reduces viral production and replication by 90%)
[2] = in vitro; settings: human
[3] = tested on: SARS-CoV (SARS-CoV-HKU-39849); assay: microbe, parasite or virus in culture; format: cell-based; settings: Severe acute respiratory syndrome coronavirus, HEK-293T
[4] = tested on: MERS-CoV (MERS-CoV-EMC/2012); assay: microbe, parasite or virus in culture; format: cell-based; settings: Middle East respiratory syndrome-related coronavirus, HEK-293T
[5] = in vitro; settings: African green monkey

Row | Structure (SMILES) | IC50 [1] [µM] | IC90 [1] [µM] | CC50 [2] [µM] | IC50 [3] [µM] | IC90 [3] [µM] | IC50 [4] [µM] | IC90 [4] [µM] | CC50 [5] [µM]
1 | CCCCn1c(=O)c2ccc(N)c(SC)c2c2cc(C(O)(C(F)(F)F)C(F)(F)F)ccc21 [NR-87] | 0.85 | 4.9 | 18.2 |  |  |  |  | 
2 | CCCn1c(=O)c2ccc(NCCO)cc2c2cc(C(O)(C(F)(F)F)C(F)(F)F)ccc21 [NR-92] | 0.72 | 3.42 | > 20 |  |  |  |  | 
3 | CCCCn1c(=O)c2ccc(C(CCO)CCO)cc2c2cc(C(O)(C(F)(F)F)C(F)(F)F)ccc21 [NR-101] | 0.54 | > 10 | > 20 |  |  |  |  | 
4 | CCCCn1c(=O)c2cc(F)c(NCCO)cc2c2cc(C(O)(C(F)(F)F)C(F)(F)F)ccc21 [NR-56] | 0.29 | 8.07 | 29.5 |  |  |  |  | 
5 | CCCCn1c(=O)c2ccc(NC(=O)[C@H]3CC(O)CN3)cc2c2cc(C(O)(C(F)(F)F)C(F)(F)F)ccc21 (some centres unmarked) [NR-30] | 0.059 | 1.84 | 13.6 | 6.95 | 19.4 | 12.5 | 21.8 | 
6 | CCCCn1c(=O)c2ccc(NCC(O)CO)cc2c2cc(C(O)(C(F)(F)F)C(F)(F)F)ccc21 (centres unmarked) [NR-90] | 0.58 | 3.87 | > 20 | 2.4 | 14.2 | 3.84 | 13.6 | 
7 | CCCCn1c(=O)c2ccc(NCCC)cc2c2cc(C(O)(C(F)(F)F)C(F)(F)F)ccc21 [NR-103] | 2.35 | > 10 | > 20 |  |  |  |  | 
8 | CCCCn1c(=O)c2cc(NC(=O)[C@@H]3C[C@@H](O)CN3)ccc2c2cc(C(O)(C(F)(F)F)C(F)(F)F)ccc21 [NR-52] | 0.14 | 2.43 | 18.1 |  |  |  |  | 
9 | CCCCn1c(=O)c2cc(NC(=O)C(C)N)ccc2c2cc(C(O)(C(F)(F)F)C(F)(F)F)ccc21 (centres unmarked) [NR-50] | 0.65 | 4.6 | 12 |  |  |  |  | 
10 | CCCCn1c(=O)c2ccc(NC(=O)C(C)N)c(F)c2c2cc(C(O)(C(F)(F)F)C(F)(F)F)ccc21 (centres unmarked) [NR-44] | 0.38 | 3.76 | 10.3 |  |  |  |  | 
11 | CCCCn1c(=O)c2ccc(NCCCCCO)cc2c2cc(C(O)(C(F)(F)F)C(F)(F)F)ccc21 [NR-100] | 0.59 | > 10 | > 20 |  |  |  |  | 
12 | CCCCn1c(=O)c2ccc(NCCN(C)C)cc2c2cc(C(O)(C(F)(F)F)C(F)(F)F)ccc21 [NR-105] | 1.48 | > 10 | 7.4 |  |  |  |  | 
13 | CCCCn1c(=O)c2ccc(NCCO)cc2c2cc(C(O)(C(F)(F)F)C(F)(F)F)ccc21 [NR-31] | 0.063 | 1.76 | > 20 | 0.74 | 6.24 | 2.15 | 5.96 | 17.6
14 | CCCCn1c(=O)c2ccc(N)cc2c2cc(C(O)(C(F)(F)F)C(F)(F)F)ccc21 [NR-31-5] | 0.546 | 2.63 | > 20 |  |  |  |  | 
15 | CCCCn1c(=O)c2cc(F)c(N)cc2c2cc(C(O)(C(F)(F)F)C(F)(F)F)ccc21 [NR-54] | 0.94 | 4.64 | 27.2 |  |  |  |  | 
16 | CCCCn1c(=O)c2ccc(NC(=O)C(C)C)cc2c2cc(C(O)(C(F)(F)F)C(F)(F)F)ccc21 [NR-16] | 0.575 | 2.03 | 15.8 |  |  |  |  | 

Row | Structure (SMILES) | IC50 [1] [µM] | IC90 [1] [µM] | CC50 [2] [µM] | IC50 [3] [µM] | IC90 [3] [µM] | IC50 [4] [µM] | IC90 [4] [µM] | CC50 [5] [µM]
17 | CCCCn1c(=O)c2ccc(NC(C)=O)cc2c2cc(C(O)(C(F)(F)F)C(F)(F)F)ccc21 [TK-04] | 0.576 | 5.97 | 7.13 |  |  |  |  | 
18 | CCCCn1c(=O)c2ccc(NCCCCO)cc2c2cc(C(O)(C(F)(F)F)C(F)(F)F)ccc21 [NR-99] | 1.3 | > 10 | > 20 |  |  |  |  | 
19 | CC(C)Cn1c(=O)c2ccc(NCCO)cc2c2cc(C(O)(C(F)(F)F)C(F)(F)F)ccc21 [NR-91] | 0.51 | 4 | > 20 |  |  |  |  | 
20 | CCCCn1c(=O)c2ccc(NC(=O)C(C)N)cc2c2cc(C(O)(C(F)(F)F)C(F)(F)F)ccc21 (centres unmarked) [NR-28] | 0.12 | 1.68 | 11.8 |  |  |  |  | 
21 | CCCCn1c(=O)c2ccc(NC(=O)CO)cc2c2cc(C(O)(C(F)(F)F)C(F)(F)F)ccc21 [NR-17] | 0.519 | 3.35 | > 20 |  |  |  |  | 
22 | CCCCn1c(=O)c2cc(F)c(NCc3ccc(O)cc3)cc2c2cc(C(O)(C(F)(F)F)C(F)(F)F)ccc21 [NR-55] | 0.15 | 6.79 | > 80 |  |  |  |  | 
23 | CCCCn1c(=O)c2ccc(NC(CO)CO)cc2c2cc(C(O)(C(F)(F)F)C(F)(F)F)ccc21 [NR-89] | 0.35 | 6.1 | > 20 | 4.74 | 20.2 | 6.77 | 19 | 
24 | CCCCn1c(=O)c2cc(F)c(NC3CCOC3)cc2c2cc(C(O)(C(F)(F)F)C(F)(F)F)ccc21 (centres unmarked) [NR-78] | 0.65 | 3.59 | 17.8 |  |  |  |  | 
25 | CCCCn1c(=O)c2ccc(NCCN)cc2c2cc(C(O)(C(F)(F)F)C(F)(F)F)ccc21 [NR-102] | 0.75 | 2.4 | 5.5 |  |  |  |  | 
26 | CCCCn1c(=O)c2cc(NC=O)ccc2c2cc(C(O)(C(F)(F)F)C(F)(F)F)ccc21 [NR-86] | 0.08 | 3.07 | 16.7 |  |  |  |  | 
27 | CCCCn1c(=O)c2cc(NC(=O)NCCO)ccc2c2cc(C(O)(C(F)(F)F)C(F)(F)F)ccc21 [NR-72] | 0.62 | 2.29 | 9 |  |  |  |  | 
28 | CCCCn1c(=O)c2ccc(NC(=O)CCO)cc2c2cc(C(O)(C(F)(F)F)C(F)(F)F)ccc21 [NR-38] | 0.058 | > 20 | > 20 |  |  |  |  | 
29 | CCCCn1c(=O)c2ccc(NC(=O)[C@H](N)CO)cc2c2cc(C(O)(C(F)(F)F)C(F)(F)F)ccc21 [NR-47] | 0.7 | 3.3 | 11.7 |  |  |  |  | 
30 | CCCCn1c(=O)c2ccc(NCC(N)=O)cc2c2cc(C(O)(C(F)(F)F)C(F)(F)F)ccc21 [NR-96] | 0.68 | 4 | > 20 |  |  |  |  | 
31 | CCCCn1c(=O)c2ccc(NCCCO)cc2c2cc(C(O)(C(F)(F)F)C(F)(F)F)ccc21 [NR-98] | 1.16 | > 10 | > 20 |  |  |  |  | 

Reference: patent US20250026734A1 (priority 2021, published 2025)
